Laboratory results published in patent US6541045B1, “Herbal composition and method for combating inflammation” (Nutraceutical Corporation, priority 2002, dated 2003).

Target: COX-1 (Homo sapiens, UniProt P23219)
Assay: COX-1 inhibition, resveratrol versus Japanese knotweed
Assay type: biochemical
Conditions: pure resveratrol (99%) compared with Japanese knotweed

Chain of COX-1 (P23219 24-599): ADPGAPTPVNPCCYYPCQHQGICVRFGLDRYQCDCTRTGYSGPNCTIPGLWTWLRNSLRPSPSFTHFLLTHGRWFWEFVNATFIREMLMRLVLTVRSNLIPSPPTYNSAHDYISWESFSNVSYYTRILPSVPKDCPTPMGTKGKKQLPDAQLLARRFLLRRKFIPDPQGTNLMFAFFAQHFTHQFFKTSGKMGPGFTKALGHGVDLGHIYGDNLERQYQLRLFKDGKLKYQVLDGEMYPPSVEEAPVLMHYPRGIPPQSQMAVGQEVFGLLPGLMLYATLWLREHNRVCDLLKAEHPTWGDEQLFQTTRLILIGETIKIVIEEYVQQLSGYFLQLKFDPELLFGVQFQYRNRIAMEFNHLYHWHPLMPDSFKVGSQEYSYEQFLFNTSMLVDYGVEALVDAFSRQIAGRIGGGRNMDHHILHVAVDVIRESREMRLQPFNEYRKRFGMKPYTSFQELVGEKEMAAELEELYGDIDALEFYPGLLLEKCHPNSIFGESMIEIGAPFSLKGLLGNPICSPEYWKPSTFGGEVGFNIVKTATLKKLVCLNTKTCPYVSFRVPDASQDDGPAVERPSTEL

## Oc1ccc(C=Cc2cc(O)cc(O)c2)cc1 [resveratrol]
  effectiveness for COX-1: just as effective
